Measurements taken from US20100248267A1, “METHOD FOR MEASUREMENT OF CONCENTRATION OF ANTIGEN” (JAPAN SCIENCE AND TECHNOLOGY AGENCY, priority 2007, published 2010).

Legend:
[1] = tested on: antibody-enzyme fusion protein (VH-cpBLA-VL); assay: β-lactamase activity change of VH-cpBLA-VL with fluorogenic substrate Fluorocillin; assay type: biochemical; details: 5 μl of 10 μg/ml antigen, 10 μM Fluorocillin, room temperature 30 minutes
Protocol: Next, a similar experiment was performed using a fluorogenic substrate Fluorocillin instead of the chromogenic substrate Nitrocefin. Specifically, 5 μl of concentrated VH-cpBLA-VL protein solution prepared in Example 9, and 5 of 10 μg/ml ICP or TCP were mixed, and incubated at 4° C. for 30 minutes. Then, 90 μl of PBS containing 10 μM Fluorocillin was added, and incubated at a room temperature for 30 minutes. The fluorescence at 535 nm with 435 nm excitation was measured using a microplate reader Genios Pro (Tecan Japan Co., Ltd.). […] In other words, the increase of the ICP-dependent β-lactamase activity was observed.

[2] = tested on: VH-cpBLA-VL/pET26/BL21 strain; assay: Growth assay using VH-cpBLA-VL expressing strain; assay type: cell-based, E. coli; details: 100 μg/ml ampicillin LB medium
Protocol: Also, for the growth assay, ICP which is the target antigen of this antibody-enzyme fusion protein, and the thiacloprid (TCP) which is an analog of ICP with a lower cross-reactivity than ICP were used. In further detail, the assay was performed by the following procedures.
First, the strain expressing VH-cpBLA-VL (antibody-enzyme fusion protein) was prepared.
0.5 μg of VH-cpBLA-VL/pET26 was used for transformation of 100 μl of the BL21 (DE3, pLysS) strain (F-, ompT, hsdSB, (rB-, mB-), dcm, gal, λ(DE3), pLysS, Cmr), and the transformed cells were cultured on an LB agar medium plate containing 50 μg/ml of kanamycin and 37 μg/ml of chloramphenicol at 30° C. overnight, to prepare an antibody-enzyme fusion protein expressing strain (VH-cpBLA-VL/pET26/BL21 strain). After the overnight culture, colonies generated on the above-mentioned LB agar medium plate were picked with a toothpick, inoculated and cultured in a 4 ml of the LB liquid culture medium plate containing 50 μg/ml of kanamycin and 37 μg/ml of chloramphenicol at 27° C. overnight. 4 μl of this pre-cultured medium was inoculated and cultured in 4 ml of the LB liquid culture medium containing 50 μg/ml of kanamycin and 37 μg/ml of chloramphenicol, 1 mM of IPTG, 0 or 100 μg/ml ampicillin, 0 to 10 ng/ml of ICP or TCP at 27° C. for 33 hours, with measuring the time course of turbidity change using Mini photo 518R at 660 nm.

[3] = tested on: VH-split•cpBLA-VL/pET26/C43 strain; assay: Growth assay using VH-split•cpBLA-VL expressing strain; assay type: cell-based, E. coli
Protocol: (§1) By applying the assay of the above-mentioned Example 6, VH-split•cpBLA-VL/pET26 was used instead of VH-cpBLA-VL/pET26, and the E. coli C43 (DE3) strain (Lucigen Corporation) suitable for overexpression of a highly toxic protein was used instead of the BL21 (DE3, pLysS) strain, to investigate the expression in the strains. To be specific, 0.5 μg of VH-split•cpBLA-VL/pET26 was used for transformation for the C43 (DE3) strain, and the transformed cells were cultured on a LB agar medium plate containing 50 μg/ml of kanamycin at 30° C. overnight, and the VH-split•cpBLA-VL expressing strain (VH-split•cpBLA-VL/pET26/C43 strain) was prepared. After overnight culture, the colonies generated on the above-mentioned LB agar medium plate were picked with a toothpick, inoculated and cultured in a 4 ml of the LB liquid medium containing 50 […] (LBK) at 27° C. overnight. 10 μl of this pre-cultured medium was inoculated in 1 ml of the LBK liquid medium containing 1 mM of IPTG, 0 or 10 μg/ml of ampicillin, 10 ng/ml of ICP or TCP. After the cells were cultured at 27° C. for 45 hours, the turbidity was measured using Mini photo 518R at 660 nm.

[4] = tested on: antibody-enzyme fusion protein (VH-cpBLA-VL); assay: β-lactamase activity change of VH-cpBLA-VL with chromogenic substrate Nitrocefin; assay type: biochemical; details: 5 μl of 10 μg/ml antigen, 1 mM Nitrocefin, room temperature 18 hours
Protocol: First, 5 μl of the concentrated VH-cpBLA-VL protein solution prepared in Example 9, 5 μl of 10 μg/ml ICP or TCP, and 90 μl of PBS containing 1 mM of Nitrocefin were mixed, and left in a dark place at a room temperature for 18 hours. Then, the absorbance at 490 nm of the reaction solution was measured to investigate the change in the β-lactamase activity. Further, absorbance at 490 nm was also measured when PBS was used instead of ICP or TCP (the item “PBS” in FIG. 12), or when VH-cpBLA-VL protein solution was not added (the item “Nitrocefin” in FIG. 12). […] In other words, the ICP-dependent increase of β-lactamase activity was observed.

[5] = tested on: antibody-enzyme fusion protein (VH-cpBLA-VL(219)); assay: Activity assay of VH-cpBLA-VL(219) using Fluorocillin; assay type: biochemical; details: triplicate; for change in signal intensity (fluorescence): antigen final concentration 1 μg/ml, compared with PBS
Protocol: Activity of the above prepared antibody-enzyme fusion protein (VH-cpBLA-VL(219)) was assayed using Fluorocillin. The antigen peptide BGP-C7 at a final concentration of 0-2000 ng/ml and the antibody-enzyme fusion protein at a final concentration of 300 nM were mixed in 50 μl of PBS, and the mixture was dispensed into black microplate wells. After adding 50 μL of 2 μM Fluorocillin in PBS, the mixture was incubated at 28° C. for 60 minutes, and read for its fluorescence intensity (intensity at 535 nm with excitation light irradiation at 485 nm). Also, control experiments were performed without antibody-enzyme fusion protein, and the fluorescence intensity of these wells was used for background subtraction. […] For information, the measurement of the present experiment was performed in triplicate. Black circles in FIG. 14 indicate the average value of the measured values and the error bars indicate 1SD.
Further, similar experiments were performed using a substance other than BGP-C7 (BGP-C8, BGP-C10, ICP, TCP with each final concentration of 1 μg/ml) as antigens.

[6] = tested on: wild-type BL21 (DE3, pLysS) strain; assay: Toxicity test of ICP in E. coli (growth curve, turbidity at 660 nm); assay type: cell-based; details: 100 ng/ml ICP, LB medium, 27° C. overnight, versus medium without ICP
Protocol: The BL21 (DE3, pLysS) strain was cultured at 30° C. overnight on an LB agar medium plate containing 37 μg/ml of chloramphenicol. The generated colonies were picked with a toothpick, inoculated and cultured in a 4 ml of the LB liquid culture medium containing 37 μg/ml of chloramphenicol at 27° C. overnight. 40 μl of this pre-cultured medium was inoculated and cultured in a 4 ml of the liquid culture medium containing 37 μg/ml of chloramphenicol and 100 ng/ml of ICP at 27° C. overnight, with measuring the time course of turbidity change using Mini photo 518R (TAITEC CORPORATION) at 660 nm.

[7] = ELISA for antigen binding ability of the antibody-enzyme fusion protein; details: ICP-BSA versus BSA coated plates
Protocol: The following ELISA assay was performed to confirm whether the antibody-enzyme fusion protein (VH-cpBLA-VL) actually has a binding activity to the antigen (ICP).
PBS solution containing 10 μg/ml of ICP-BSA or BSA was dispensed into Falcon 3912 microplates by 100 μl each, and left at 4° C. for 16 hours. After discarding the solution from the microplates, 200 μl of PBS including 25% of Immunoblock was added and left at a room temperature for 2 hours for blocking. Next, after washing the microplates with PBS-T, […] of the purified antibody-enzyme fusion protein (VH-cpBLA-VL) prepared in the above-mentioned Example 9 and 100 μl of PBS containing 5% Immunoblock were added, and left at a room temperature for 90 minutes. In order to detect the antibody-enzyme fusion protein (VH-cpBLA-VL) bound to the solid-phase by the above preparation, the microplates were washed with PBS-T, and added with HRP labeled Penta-His (QIAGEN K.K., Tokyo) diluted in 1/2000 in PBS containing 5% Immunoblock. […] After incubation for 5 minutes in a dark place, the reaction was stopped by adding 50 μl of 3.2 N of H2SO4, and the absorbance was measured with a platereader (450 nm).
Also, the above-mentioned ELISA was applied for VH-split•cpBLA-VL(VH-BLAc and BLAn-VL) or cpBLA instead of using VH-cpBLA-VL, and the absorbance was measured similarly. […]

[8] = tested on: cpBLA/pET26/BL21 strain or cpBLA/pET26/C43 strain; assay: Growth assay using cpBLA expressing strain; assay type: cell-based, E. coli
Protocol: as §1

[9] = less than 100 μg/ml ICP or TCP added

In the case of `O=[N+]([O-])NC1=NCCN1Cc1ccc(Cl)nc1` [ICP, imidacloprid], the “change in β-lactamase activity (fluorescence at 535 nm)” value [1] is reported as “significant signal increase”, the “time after initiation of measurement from which growth was observed” value ([2]; ICP at 1 ng/ml) is reported as “about 30 hours” and the “growth of expressing strain (turbidity at 660 nm)” value (from here on “growth … (turbidity at 660 nm)”) ([2]; antigen at 1 ng/ml) is reported as “dose-dependent growth”. The “growth … (turbidity at 660 nm)” value ([2]; antigen at 5 to 10 ng/ml) was “dose-dependent growth”, the “growth … (turbidity at 660 nm)” value ([3]; 10 μg/ml ampicillin, 10 ng/ml antigen, 27° C., 45 hours) was “ICP dependent-growth” and the “growth … (turbidity at 660 nm)” value [3, 9] was “no significant growth”. The “change in β-lactamase activity (absorbance at 490 nm)” value [4] was “significant signal increase”, the “change in signal intensity (fluorescence)” value (“change in signal intensity” for short) [5] was “only the same signal intensity as PBS” and the “toxicity or growth-promoting activity in E. coli” value [6] was “no toxicity or growth-promoting activity”.

For `N#C/N=C1\SCCN1Cc1ccc(Cl)nc1` [TCP, thiacloprid], the “time after initiation of measurement from which growth was observed” value ([2]; TCP, later than ICP of the same concentration) was “about 30 hours”, the “growth … (turbidity at 660 nm)” value ([2]; antigen at 10 ng/ml, similar to 1 ng/ml ICP) was “significant growth” and the “growth … (turbidity at 660 nm)” value [3, 9] was “no significant growth”. The “change in β-lactamase activity (absorbance at 490 nm)” value [4] was “slight significant signal increase” and the “change in signal intensity” value [5] was “only the same signal intensity as PBS”.

With “BGP-C7: antigen peptide (osteocalcin C-terminal peptide) recognised by antibody KTM219 (RRFYGPV)” the “change in fluorescence intensity (535 nm)” value ([5]; antigen 0-2000 ng/ml, 300 nM fusion protein, dose-dependent) was “significant increase of the fluorescence intensity”.

In the case of “BGP-C8: BGP peptide detectable by open sandwich ELISA with KTM219 (YRRFYGPV)”, the “change in signal intensity” value [5] is reported as “increase of the signal intensity”.

With “BGP-C10: BGP peptide detectable by open sandwich ELISA with KTM219 (EAYRRFYGPV)” the “change in signal intensity” value [5] was “increase of the signal intensity”.

B1: cpBLA: circularly permutated β-lactamase without antibody domains (SEQ ID NO: 13), control (protein, listed as Escherichia coli)
chain: NEAIPNDERDTTMPAAMATTLRKLLTGELLTLASRQQLIDWMEADKVAGPLLRSALPAGWFIADKSGAGERGSRGIIAALGPDGKPSRIVVIYTTGSQATMDERNRQIAEIGASLIKHWDKSHPETLVKVKDAEDQLGARVGYIELDLNSGKILESFRPEERFPMMSTFKVLLCGAVLSRIDAGQEQLGRRIHYSQNDLVEYSPVTEKHLTDGMTVRELCSAAITMSDNTAANLLLTTIGGPKELTAFLHNMGDHVTRLDRWEPELNEA
In the case of B1, the “ELISA signal regardless of the presence or absence of ICP (antigen)” value [7] is reported as “similarly low signal”, the “growth of expressing strain” value ([8]; ampicillin added) is reported as “growth was not observed in any of the samples” and the “growth of expressing strain” value ([8]; ampicillin not added) is reported as “growth was observed regardless of the presence or absence of the antigen”. The antigen-dependent growth ([8]; any of the cpBLA expressing strains) was “antigen-dependent growth was not observed”.
